In patent US20120196927A1, “PROPHYLACTIC AND/OR THERAPEUTIC AGENT FOR METABOLIC SYNDROME” (priority 2009, published 2012):

Experiments:
[1] = tested on: GLUT4 protein; assay: Diabetes model mice: GLUT4 protein expression level (Western blotting); format: in vivo, mouse; details: ob/ob mice, nobiletin 200 mg/kg/day, Pioglitazone 30 mg/kg/day
Protocol: After finishing the experiment, the white adipose tissue and skeletal muscle were excised according to that described in the example 1, protein expression level of GLUT 4 were detected by using Western blotting method. The expression levels of GLUT4 protein were determined by using Na^+/K^+ ATPase α-1 protein as an internal reference.

[2] = tested on: C57BL/6J-ob/ob mice; assay: Diabetes model mice: fasting blood glucose level; format: in vivo, mouse; details: nobiletin 200 mg/kg/day, Pioglitazone 30 mg/kg/day p.o.
Protocol: Two weeks or 5 weeks from the beginning of the administration, the fasting blood glucose was measured (n=10). The measurement of the blood glucose level was carried out as the same as that of the example 1.

[3] = tested on: gluconeogenesis-related genes PEPCK, G6Pase; assay: Diabetes model mice: mRNA expression in the liver (real time RT-PCR); format: in vivo, mouse; details: ob/ob mice, Vehicle = 1.00, nobiletin 200 mg/kg/day, Pioglitazone 30 mg/kg/day, 5 weeks
Protocol: (§1) The effects by nobiletin ingestion to the mRNA expression in the white adipose tissue and the liver were measured (n=10).
(§2) After the termination of the administration period for 5 weeks, mRNA expression levels of respective genes shown in the table 10 were determined by using real time RT-PCR method. The real time RT-PCR was carried out according to an operation manual provided by ISOGEN (NIPPON GENE CO., LTD); RNA was extracted from the white adipose tissue and the liver. Next, cDNA was prepared from using 1 μg of RNA by using Reverse Transcription System kit (Promega Corp., USA). Next, suitable primers for the above-mentioned genes were prepared according to the operation manual provided by FastStart universal SYBR (a registered trademark) Greenmaster PCR KIT agent (Roche Diagnostics K. K., Germany).
(§3) Real time PCR system 7700HT (Applied Biosytems, USA) was used for the determination to carry out the real time PCR by using the cDNAs as templates. Each reaction conditions were set according to the manual of the PCR KIT. Quantitative analysis of the RNA amount was carried out based on comparative Ct method by using glyceraldehyde 3-phosphate dehydrogenase (GAPDH) as the standard reference.

[4] = tested on: C57BL/6J-ob/ob mice; details: nobiletin 200 mg/kg/day, Pioglitazone 30 mg/kg/day, 5 weeks
Text: (§6) Diabetes model mice and the experimental system were as follows. As the diabetes model mice, 7 week age of male C57BL/6J-ob/ob (hereinafter, it was referred to as “ob/ob”) were purchased from Charles River Laboratories Japan Inc., and used as 10 mice/group.
For the negative control group (from FIGS. 5 to 10, it was shown as Vehicle; hereinafter, it is referred to as “solvent administration group”), 0.3% of CMC aqueous solution was administrated orally for 5 weeks in everyday at the dosage of 0.01 mL/g body weight. For the positive control group (in FIGS. 5 to 10 and hereinafter, it was referred to as “P30 administrated group”), 3 mg of Pioglitazone was suspended in 0.3% CMC aqueous solution so as to be orally administrated at the dosage of 0.01 mL/g body weight for 5 weeks in everyday (dosage: 30 mg/kg body weight/day). […]
The blood insulin level was measured as described in below. […] As lipids in plasma, concentrations of neutral fat (TG) and total cholesterol (T-CHO) were measured. Plasma insulin level was measured by using rebis insulin mouse (type U) (Shibayagi Co. Ltd.) based on the enzyme-immunoassay.

[5] = tested on: GLUT4, Adiponectin, TNF-α, MCP-1, IL-6, PPARγ, aP2, LPL, Perilipin genes; assay: Diabetes model mice: mRNA expression in the white adipose tissue (real time RT-PCR); format: in vivo, mouse; details: ob/ob mice, Vehicle = 1.00, nobiletin 200 mg/kg/day, Pioglitazone 30 mg/kg/day, 5 weeks
Protocol: as §1, §2, §3

[6] = tested on: C57BL/6J-ob/ob mice; assay: Diabetes model mice: oral glucose tolerance test (OGTT); format: in vivo, mouse; details: nobiletin 200 mg/kg/day, Pioglitazone 30 mg/kg/day
Protocol: The oral glucose tolerance test (OGTT) for the diabetes model mice (ob/ob) to which the nobiletin and others were administrated was subjected to the glucose tolerance test for studying the effects.
From 4 weeks after the start of the administration, the mice in each group were fasted for 16 hours, and then they were administrated 2 g/kg body weight of glucose per os. After the administration of glucose, […] of blood was collected from the tail vein at the time point of 0, 30, 60 and 120 minutes. Collected blood was centrifuged at 4° C., 3,000×g, for 15 minute to obtain plasma (n=10). The blood glucose level was measured as the same as that described in the example 1.

[7] = tested on: C57BL/6J-ob/ob mice; format: in vivo, mouse; details: p.o. daily 5 weeks, nobiletin 200 mg/kg/day (No200), Pioglitazone 30 mg/kg/day (P30)
Text: as §6
For the negative control group (from FIGS. 5 to 10, it was shown as Vehicle; hereinafter, it is referred to as “solvent administration group”), 0.3% of CMC aqueous solution was administrated orally for 5 weeks in everyday at the dosage of 0.01 mL/g body weight. For the positive control group (in FIGS. 5 to 10 and hereinafter, it was referred to as “P30 administrated group”), 3 mg of Pioglitazone was suspended in 0.3% CMC aqueous solution so as to be orally administrated at the dosage of 0.01 mL/g body weight for 5 weeks in everyday (dosage: 30 mg/kg body weight/day).
For the sample ingestion group (in FIGS. 5 to 10 and hereinafter, it is referred to as “No200 ingestion group”), 20 mg of nobiletin purified as mentioned above (1) was suspended in 0.3% of carboxymethylcellulose (CMC) aqueous solution so as to be orally administrated at the dose of 0.01 mL/g body weight for 5 weeks in everyday (the dose: 200 mg/kg/day).
The body weight of mice, ingestion amount, weight of the white adipose tissue and liver weight of each mice were measured as the same as described in the example 3.

[8] = tested on: C57BL/6 male mice; assay: Tangeretin, obesity-induced mice: blood TG and T-CHO level; format: in vivo, mouse; details: fasting, tangeretin 200 mg/kg/day p.o., HFD
Protocol: After the completion of the experiment, blood neutral fat level in fasting state was measured at the time points of beginning of the experiment, two and five weeks after the administration.
The blood neutral fat (TG) level was measured as the same as that employed in the example 1.
The total cholesterol (T-CHO) level in blood was measured as the same as that in the Example.

[9] = tested on: C57BL/6 male mice; assay: Tangeretin, obesity-induced mice: body weight gain and ingestion amount; format: in vivo, mouse; details: HFD obesity-induced C57BL/6 mice
Text: (§4) Six week age of C57BL/6 male mice were preliminary kept for 1 week (−9 to −8 week), and then classified into three groups. […] was given to one group, and HFD was given to other two groups, for 8 weeks (−8 to +5 week). From 8 weeks (15 week age) to 13 weeks, the following agents were given to each group for 5 weeks per os (hereinafter, they were referred to as LFD administration group and HFD administration group in the Example 6). The compositions of the LFD or HFD were the same as those in the Example 3.
(§5) To the LFD administration group (n=8) and the HFD administration group (n=11), 0.3% CMC aqueous solution was given at the amount of 0.01 mL/g of the body weight. […] The schedule of the feed ingestion and the agent administration of the above-mentioned 3 groups were schematically shown in FIG. 12A.
The ingestion amount of the mice in each group was measured twice a week. The ingestion amounts in 24 hours/3 mice/cage were measured and obtained as mean average of each group for 5 weeks.

[10] = tested on: C57BL/6 male mice; assay: Tangeretin, obesity-induced mice: tissue weight; format: in vivo, mouse; details: HFD obesity-induced mice, tangeretin 200 mg/kg/day p.o. 5 weeks
Text: as §4, §5
After the completion of the experiment, the mice in each group were dissected to excise organs and so forth to measure their weight. The white adipose tissue was excised from retroperitoneum and periphery of epididymis.

[11] = tested on: C57BL/6 male mice; assay: Tangeretin, obesity-induced mice: oral glucose tolerance test (OGTT); format: in vivo, mouse; details: tangeretin 200 mg/kg/day p.o., HFD
Protocol: The oral glucose tolerance test (OGTT) was carried out as the same as that in the example 1.

[12] = tested on: C57BL/6 male mice; assay: Tangeretin, obesity-induced mice: blood glucose in fasting state; format: in vivo, mouse; details: tangeretin 200 mg/kg/day p.o., HFD
Protocol: The blood glucose level was measured as the same as that of the example 1. […] As mentioned above, it was shown that tangeretin has the inhibition effects of the blood glucose level in the fasting state when the high fat diet was ingested.

[13] = tested on: GLUT4 gene and PPARγ gene; assay: Tangeretin, obesity-induced mice: mRNA expression of GLUT4 and PPARγ (real time RT-PCR); format: in vivo, mouse; details: HFD = 1, tangeretin 200 mg/kg/day p.o. 5 weeks
Protocol: mRNA expression level was determined by using real time PCR as follows. According to the direction attached with ISOGEN (Nippon Gene Co., Ltd), RNA was extracted from white adipose tissue, liver, and skeletal muscle. Next, cDNA was prepared from 1 μg of RNA by using Reverse Transcription System kit (Promega, USA). Subsequently, according to the direction attached with FastStart universal SYBR (Registered trademark) Greenmaster PCR kit reagent (Roche Diagnostics, Germany), primers suitable for each intended gene in the following experiments were synthesized. Real time PCR system 7700 HT (Applied Biosytems, USA) was used for the measurement, the cDNA was used as templates for the real time PCR. Reaction conditions were followed to those for the PCR kit reagents. Quantitative analysis of RNA level was performed by Comparison Ct method, using glyceraldehyde 3-phosphate dehydrogenase (GAPDH) as the standard.
As the same as that in the Example 1, after the completion of the experiment, the white adipose tissue was excised to determine the both mRNA expression levels of GLUT4 gene mRNA and PPARγ gene by using the real time RT-PCR. Ratios of the expression levels when that of the HFD is 1 were shown in the table 18 and FIGS. 11A and 11B.

[14] = Western blotting, Vehicle = 1.00, 5 weeks

CCc1ccc(CCOc2ccc(CC3SC(=O)NC3=O)cc2)nc1 (stereo not shown) [Pioglitazone, reference compound]
Gene expression level (ratio), Skeletal muscle (GLUT4 protein) [1, 14]: 3.15 | Gene expression level (ratio), White adipose tissue (GLUT4 protein) [1, 14]: 2.24 | GLUT4 protein expression amount in the skeletal muscle, times higher than vehicle administration group [1]: ~3 times | GLUT4 protein expression level in the white adipose tissue, times higher than vehicle administration group [1]: 2.2 times | Blood glucose level (fasting) ([2]; 0 week after administration): 183.61 ± 16.51 mg/dL | Blood glucose level (fasting) ([2]; 2 weeks after administration): 132.50 ± 7.86 mg/dL | Blood glucose level (fasting) ([2]; 5 weeks after administration): 144.67 ± 8.96 mg/dL | Gene expression level (ratio), [L]G6Pase [3]: 0.23 ± 0.04 | Gene expression level (ratio), [L]PEPCK [3]: 0.57 ± 0.01 | Adiponectin level in blood, times higher than solvent administration group [4]: ≥ 2.5 times | Gene expression level (ratio), [W]Adiponectin [5]: 1.58 ± 0.02 | Gene expression level (ratio), [W]GLUT4 [5]: 1.15 ± 0.02 | Gene expression level (ratio), [W]IL-6 [5]: 0.19 ± 0.12 | Gene expression level (ratio), [W]LPL [5]: 0.93 ± 0.04 | Gene expression level (ratio), [W]MCP-1 [5]: 0.44 ± 0.10 | Gene expression level (ratio), [W]PPARγ [5]: 1.13 ± 0.02 | Gene expression level (ratio), [W]Perilipin [5]: 1.37 ± 0.13 | Gene expression level (ratio), [W]TNF-α [5]: 1.08 ± 0.01 | Gene expression level (ratio), [W]aP2 [5]: 2.03 ± 0.01 | Blood glucose level (OGTT) ([6]; 0 min after 2 g/kg glucose p.o.): 144.67 ± 8.96 mg/dL | Blood glucose level (OGTT) ([6]; 30 min after 2 g/kg glucose p.o.): 273.55 ± 14.15 mg/dL | Blood glucose level (OGTT) ([6]; 60 min after 2 g/kg glucose p.o.): 170.60 ± 4.45 mg/dL | Blood glucose level (OGTT) ([6]; 120 min after 2 g/kg glucose p.o.): 175.79 ± 18.06 mg/dL | Gained body weight [7]: 10.83 ± 0.58 g | white adipose tissue [7]: 5.70 ± 0.17 g

COc1ccc(-c2cc(=O)c3c(OC)c(OC)c(OC)c(OC)c3o2)cc1 [tangeretin]
Blood TG level ([8]; 0 weeks after administration): 108.70 ± 7.75 mg/dL | Blood TG level ([8]; 2 weeks after administration): 107.89 ± 9.46 mg/dL | Blood TG level ([8]; 5 weeks after administration): 105.42 ± 7.54 mg/dL | Body weight gain ([9]; tangeretin 200 mg/kg/day p.o. 5 weeks (HFD+T200)): 3.94 ± 0.45 g | Ingestion amount ([9]; tangeretin 200 mg/kg/day p.o., mean of 5 weeks): 2.47 ± 0.24 g/day | Tissue Weight, Kidney [10]: 0.31 ± 0.01 g/100 g of body weight | Tissue Weight, Liver [10]: 1.48 ± 0.11 g/100 g of body weight | Tissue weight, Epididymis white adipose tissue [10]: 0.99 ± 0.12 g/100 g of body weight | Tissue weight, Retroperitoneum white adipose tissue [10]: 2.38 ± 0.09 g/100 g of body weight | Tissue weight, White adipose tissue in total [10]: 3.38 ± 0.16 g/100 g of body weight | Blood glucose level (OGTT) ([11]; 0 min after glucose): 124.75 ± 7.14 mg/dL | Blood glucose level (OGTT) ([11]; 15 min after glucose): 347.43 ± 11.82 mg/dL | Blood glucose level (OGTT) ([11]; 30 min after glucose): 309.73 ± 17.88 mg/dL | Blood glucose level (OGTT) ([11]; 60 min after glucose): 274.14 ± 19.04 mg/dL | Blood glucose level (OGTT) ([11]; 120 min after glucose): 265.19 ± 15.82 mg/dL | Blood glucose level (fasting state) ([12]; time after administration 0 (head prints min.)): 142.82 ± 7.03 mg/dL | Blood glucose level (fasting state) ([12]; time after administration 2 (head prints min.)): 164.79 ± 9.82 mg/dL | Blood glucose level (fasting state) ([12]; time after administration 5 (head prints min.)): 124.75 ± 7.14 mg/dL | Expression level (ratio), [M]GLUT4 ([13]; skeletal muscle mRNA): 1.72 | Expression level (ratio), [W]GLUT4 ([13]; white adipose tissue mRNA): 0.42 | Expression level (ratio), [W]PPARγ ([13]; white adipose tissue mRNA): 0.43
